Results from patent US20040106590A1, “Methods and reagents for treating infections of clostridium difficile and diseases associated therewith” (priority 2002, published 2004).
Converted amounts (≈) assume the structure as drawn.

What was measured:
Assay type in all cases: cell-based
C. difficile = test: MIC by agar dilution (NCCLS M11-A5) on C. difficile strains; details: for MIC: Clostridioides difficile; for susceptibility of strains: Strains 80 and 29-5-30
B. theta 29741 = test: MIC by agar dilution, QC organism B. theta 29741; details: QC B. theta 29741, 48 h anaerobic
B. frag 25285 = test: MIC by agar dilution, QC organism B. frag 25285; details: QC B. frag 25285, 48 h anaerobic
[1] = ATCC43255, Sample 31, QC C. diff ATCC 43255
[2] = Sample 23, C. difficile 11-5-03
[3] = Sample 24, C. difficile 13-5-03
[4] = Sample 25, C. difficile 14-5-03
[5] = Sample 26, C. difficile 16-5-03
[6] = Sample 27, C. difficile 17-5-03
[7] = Sample 28, C. difficile 19-5-03
[8] = Sample 29, C. difficile 22-5-03
[9] = Sample 30, C. difficile 29-5-03

MIC (C. difficile; [1]) [µg/mL] | MIC (C. difficile; Sample 1, C. difficile 18) [µg/mL] | MIC (C. difficile; Sample 2, C. difficile 22) [µg/mL] | MIC (C. difficile; Sample 3, C. difficile 28) [µg/mL] | MIC (C. difficile; Sample 4, C. difficile 40) [µg/mL] | MIC (C. difficile; Sample 5, C. difficile 44) [µg/mL] | MIC (C. difficile; Sample 6, C. difficile 50) [µg/mL] | MIC (C. difficile; Sample 7, C. difficile 60) [µg/mL] | MIC (C. difficile; Sample 8, C. difficile 70) [µg/mL] | MIC (C. difficile; Sample 9, C. difficile 80) [µg/mL] | MIC (C. difficile; Sample 10, C. difficile 101) [µg/mL] | MIC (C. difficile; Sample 11, C. difficile 107) [µg/mL] | MIC (C. difficile; Sample 12, C. difficile 113) [µg/mL] | MIC (C. difficile; Sample 13, C. difficile 116) [µg/mL] | MIC (C. difficile; Sample 14, C. difficile 143) [µg/mL] | MIC (C. difficile; Sample 15, C. difficile 146) [µg/mL] | MIC (C. difficile; Sample 16, C. difficile 154) [µg/mL] | MIC (C. difficile; Sample 17, C. difficile 166) [µg/mL] | MIC (C. difficile; Sample 18, C. difficile 199) [µg/mL] | MIC (C. difficile; Sample 19, C. difficile 65C) [µg/mL] | Structure (SMILES) | other results
0.002 (≈ 0.00213 µM) | 0.001 (≈ 0.00106 µM) | 0.001 (≈ 0.00106 µM) | 0.002 (≈ 0.00213 µM) | 0.001 (≈ 0.00106 µM) | 0.001 (≈ 0.00106 µM) | 0.002 (≈ 0.00213 µM) | 0.002 (≈ 0.00213 µM) | 0.001 (≈ 0.00106 µM) | > 20.5 | 0.004 (≈ 0.00425 µM) | 0.001 (≈ 0.00106 µM) | 0.004 (≈ 0.00425 µM) | 0.002 (≈ 0.00213 µM) | ≤ 0.0005 | 0.001 (≈ 0.00106 µM) | ≤ 0.0005 | 0.001 (≈ 0.00106 µM) | ≤ 0.0005 | 0.002 (≈ 0.00213 µM) | CO[C@H]1/C=C/O[C@@]2(C)Oc3c(C)c(O)c4c(=O)c(c5oc6cc(N7CCN(CC(C)C)CC7)cc(O)c6nc-5c4c3C2=O)NC(=O)/C(C)=C\C=C\[C@H](C)[C@H](O)[C@@H](C)[C@@H](O)[C@@H](C)[C@H](OC(C)=O)[C@@H]1C [ABI1648, 3′-hydroxy-5′-(4-isobutyl-1-piperazinyl) benzoxazinorifamycin] | MIC (C. difficile; Sample 20, C. difficile 5-5-03): 0.002 µg/mL (≈ 0.00213 µM); MIC (C. difficile; Sample 21, C. difficile 6-5-03): 0.002 µg/mL (≈ 0.00213 µM); MIC (C. difficile; Sample 22, C. difficile 7-5-03): 0.002 µg/mL (≈ 0.00213 µM); MIC (C. difficile; [2]): 0.001 µg/mL (≈ 0.00106 µM); MIC (C. difficile; [3]): ≤ 0.0005 µg/mL; MIC (C. difficile; [4]): 0.001 µg/mL (≈ 0.00106 µM); MIC (C. difficile; [5]): 0.008 µg/mL (≈ 0.0085 µM); MIC (C. difficile; [6]): 0.002 µg/mL (≈ 0.00213 µM); MIC (C. difficile; [7]): 0.002 µg/mL (≈ 0.00213 µM); MIC (C. difficile; [8]): 0.001 µg/mL (≈ 0.00106 µM); MIC (C. difficile; [9]): > 0.5 µg/mL; susceptibility of strains (C. difficile): less susceptible; effectiveness compared with metronidazole (C. difficile; against almost all 31 strains of C. difficile): much more effective than metronidazole; MIC (B. theta 29741): 0.03 µg/mL (≈ 0.0319 µM); MIC (B. frag 25285): 0.03 µg/mL (≈ 0.0319 µM)
0.5 (≈ 2.92 µM) | 0.5 (≈ 2.92 µM) | 0.5 (≈ 2.92 µM) | 0.5 (≈ 2.92 µM) | 0.5 (≈ 2.92 µM) | 0.5 (≈ 2.92 µM) | 0.5 (≈ 2.92 µM) | 0.5 (≈ 2.92 µM) | 0.25 (≈ 1.46 µM) | 0.5 (≈ 2.92 µM) | 0.5 (≈ 2.92 µM) | 0.5 (≈ 2.92 µM) | 0.5 (≈ 2.92 µM) | 0.25 (≈ 1.46 µM) | 0.5 (≈ 2.92 µM) | 0.5 (≈ 2.92 µM) | 0.25 (≈ 1.46 µM) | 0.5 (≈ 2.92 µM) | 0.25 (≈ 1.46 µM) | 0.5 (≈ 2.92 µM) | Cc1ncc([N+](=O)[O-])n1CCO [Metronidazole, metronidazole, reference compound] | MIC (C. difficile; Sample 20, C. difficile 5-5-03): 0.5 µg/mL (≈ 2.92 µM); MIC (C. difficile; Sample 21, C. difficile 6-5-03): 0.5 µg/mL (≈ 2.92 µM); MIC (C. difficile; Sample 22, C. difficile 7-5-03): 0.25 µg/mL (≈ 1.46 µM); MIC (C. difficile; [2]): 0.5 µg/mL (≈ 2.92 µM); MIC (C. difficile; [3]): 0.5 µg/mL (≈ 2.92 µM); MIC (C. difficile; [4]): 0.5 µg/mL (≈ 2.92 µM); MIC (C. difficile; [5]): 0.5 µg/mL (≈ 2.92 µM); MIC (C. difficile; [6]): 0.25 µg/mL (≈ 1.46 µM); MIC (C. difficile; [7]): 0.5 µg/mL (≈ 2.92 µM); MIC (C. difficile; [8]): 0.25 µg/mL (≈ 1.46 µM); MIC (C. difficile; [9]): 0.5 µg/mL (≈ 2.92 µM); susceptibility of strains (C. difficile): less susceptible; MIC (B. theta 29741): 2 µg/mL (≈ 11.7 µM); MIC (B. frag 25285): 1 µg/mL (≈ 5.84 µM)
